Values of other authors in patent US20200230141A1, “BI-LAYER PHARMACEUTICAL TABLET FORMULATION” (ViiV Healthcare Company, priority 2017, published 2020).
Read-outs that look alike come from different tables or passages of the source.

Experiments:
[1] = not told
[2] = typical / standard physiologic conditions
[3] = tested on: HIV-1 strains; details: broad range of HIV-1 strains
[4] = steady state, HIV-1-infected adults

SMILES: Nc1ccn([C@@H]2CS[C@H](CO)O2)c(=O)n1 (single isomer, unassigned) [lamivudine]
- permeability [1]: highly permeable

SMILES: C[C@@H]1CCO[C@H]2Cn3cc(C(=O)NCc4ccc(F)cc4F)c(=O)c(O)c3C(=O)N12 [Dolutegravir, (4R,12aS)—N-[(2,4-difluorophenyl)methyl]-7-hydroxy-4-methyl-6,8-dioxo-3,4,12,12a-tetrahydro-2H-pyrido[5,6]pyrazino[2,6-b][1,3]oxazine-9-carboxamide]
- solubility [2]: slightly soluble
- potency [3]: subnanomolar
- Cmax, geometric mean (% CV) ([4]; 50 mg once daily): 3.67 (20) mcg/mL
- Cmin, geometric mean (% CV) ([4]; 50 mg once daily): 1.11 (46) mcg/mL
- AUC(0-24), geometric mean (% CV) ([4]; 50 mg once daily, population PK (SPRING-1, SPRING-2)): 53.6 (27) mcg · h/mL
- Cmax, geometric mean (% CV) ([4]; 50 mg twice daily): 4.15 (29) mcg/mL
- Cmin, geometric mean (% CV) ([4]; 50 mg twice daily): 2.12 (47) mcg/mL
- AUC(0-24), geometric mean (% CV) ([4]; 50 mg twice daily, population PK (VIKING, VIKING-3)): 75.1 (35) mcg · h/mL
